In US5753709A, “N-acyl-2 aryl cyclopropylmethylamine derivatives as melatonergics” (Bristol-Myers Squibb Company, priority 1996, dated 1998):

biological target: T1, human melatonin receptor (human ML1A) (Homo sapiens, UniProt P48039); assay: Melatonergic binding: displacement of 2-[125I]-iodomelatonin at the human melatonin receptor (human ML1A in COS-1 membranes); settings: Table 4; displacement of 2[125I]-Iodomelatonin (100 pM), 37° C., 1 hour
T1 construct: expressed in transfected cells; host or cells: COS-1 cells (transient, pcDNAI, DEAE-dextran); membrane homogenates
Method: The melatonergic binding of the compounds of Formula I was determined by a modification of the method of Reppert, S. M. et al. (Neuron, Volume 13, pages 1177-1185, 1994). […] The reagents, membranes, and other parameters used in the assay are described below:
(a) 50 mM Tris buffer containing 12.5 mM MgCl2, and 2 mM EDTA (pH 7.4 at 37° C.).
(b) Wash buffer: 20 mM Tris base containing 2 mM MgCl2 (pH 7.4 at room temperature).
(c) 6-Chloromelatonin (10^-5 M final concentration).
(d) 2-[^125 I]-Iodomelatonin (100 pM final concentration). (Source: NEN) Membrane preparation: The cDNA (human ML1A) in pcDNAI was introduced into COS-1 cells by the DEAE-dextran method. Three days later, after media removal, the plates were washed with buffered saline; the cells removed using Hank's balanced salt solution and pelleted. The supernant was discarded and the pellets frozen. For membrane homogenates, the pellets were thawed and resuspended in TME buffer, Tris base, MgCl2, EDTA (pH 7.4 at 37° C.), and supplemented with aprotinin, leupeptin, and phenylmethylsulfonyl fluoride. The cells were homogenized and centrifuged; the resulting pellet resuspended in TME and frozen. At assay, the small aliquot was thawed on ice and resuspended in TME buffer. Incubation: 37° C. for 1 hour. Reaction is terminated by filtration.

T1 sequence (P48039 whole entry): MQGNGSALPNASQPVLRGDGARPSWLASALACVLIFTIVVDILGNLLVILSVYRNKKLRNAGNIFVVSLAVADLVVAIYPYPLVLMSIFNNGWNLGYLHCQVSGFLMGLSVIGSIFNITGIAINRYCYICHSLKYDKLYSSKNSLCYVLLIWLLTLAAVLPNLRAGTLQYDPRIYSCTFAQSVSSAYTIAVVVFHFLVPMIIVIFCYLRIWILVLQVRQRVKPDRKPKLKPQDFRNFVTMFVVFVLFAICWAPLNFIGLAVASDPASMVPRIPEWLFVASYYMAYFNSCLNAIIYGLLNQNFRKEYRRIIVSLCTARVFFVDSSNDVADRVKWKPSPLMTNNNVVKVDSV

Row | SMILES | IC50 [nM]
1 | COc1ccc(F)c([C@@H]2C[C@H]2CNC(=O)C(C)C)c1 (relative stereo) [Example 1, (trans)-N-[[2-(2-Fluoro-5-methoxyphenyl)cyclopropyl]methyl]-2-methylpropanamide] | 40 to 250
2 | CCCC(=O)NC[C@@H]1C[C@H]1c1cccc(OC)c1 (relative stereo) [Example 2, (trans)-N-[[2-(3-Methoxyphenyl)cyclopropyl]methyl] butanamide] | < 5
3 | CCCC(=O)NC[C@@H]1C[C@H]1c1cc(OC)ccc1I (relative stereo) [Example 4, (trans)-N-[[2-(2-Iodo-5-methoxyphenyl)cyclopropyl]methyl]butanamide] | < 5
4 | CCCC(=O)N(Cc1ccccc1)C[C@@H]1C[C@H]1c1cccc(OC)c1 (relative stereo) [Example 6, (trans)-N-[[2-(3-Methoxyphenyl)cyclopropyl]methyl]-N-(phenylmethyl) butanamide] | 40 to 250
5 | CCC(=O)NC[C@@H]1C[C@H]1c1cccc(OC)c1 (relative stereo) [Example 18, (trans)-N-[[2-(3-Methoxyphenyl)cyclopropyl]methyl] propanamide] | < 5
6 | COc1cccc([C@@H]2C[C@H]2CNC(C)=O)c1 (relative stereo) [Example 19, (trans)-N-[[2-(3-Methoxyphenyl)cyclopropyl]methyl] acetamide] | 5 to 40
7 | COCC(=O)NC[C@@H]1C[C@H]1c1cccc(OC)c1 (relative stereo) [Example 20, (trans)-N-[[2-(3-Methoxyphenyl)cyclopropyl]methyl]-2-methoxyacetamide] | 5 to 40
8 | COc1cccc([C@@H]2C[C@H]2CNC(=O)C(C)C)c1 (relative stereo) [Example 21] | 5 to 40
9 | CCCCC(=O)NC[C@@H]1C[C@H]1c1cccc(OC)c1 (relative stereo) [Example 25] | 40 to 250

same assay, conditions: Table 5; displacement of 2[125I]-Iodomelatonin (100 pM), 37° C., 1 hour

Row | SMILES | IC50 [nM]
10 | CCCC(=O)NC[C@@H]1C[C@H]1c1cccc(O)c1 (relative stereo) [Example 7a, (trans)-N-[[2-(3-Hydroxyphenyl)cyclopropyl]methyl] butanamide] | 250 to 600
11 | C=CCOc1cccc([C@@H]2C[C@H]2CNC(=O)CCC)c1 (relative stereo) [Example 7b, (trans)-N-[[2-[3-(2-Propenyloxy)phenyl]cyclopropyl]methyl] butanamide] | 5 to 40
12 | CCCC(=O)NC[C@@H]1C[C@H]1c1cccc(OCCO)c1 (relative stereo) [Example 15] | 40 to 250
13 | CCCC(=O)NC[C@@H]1C[C@H]1c1cccc(OCCCCCCc2ccccc2)c1 (relative stereo) [Example 45] | 40 to 250
14 | CCCC(=O)NC[C@@H]1C[C@H]1c1cccc(OCCCCCCCc2ccccc2)c1 (relative stereo) [Example 46, (trans)-N-[[2-[3-[(7-Phenylheptyl)oxy]phenyl]cyclopropyl]methyl] butanamide] | 5 to 40
15 | CCCC(=O)NC[C@@H]1C[C@H]1c1cccc(OCCCC#Cc2ccccc2)c1 (relative stereo) [Example 47] | 250 to 600
16 | CCCC(=O)NC[C@@H]1C[C@H]1c1cccc(OCC)c1 (relative stereo) [Example 48] | 5 to 40
17 | CCCCCCCOc1cccc([C@@H]2C[C@H]2CNC(=O)CCC)c1 (relative stereo) [Example 53, (trans)-N-[[2-[3-(Heptyloxy)phenyl]cyclopropyl]methyl] butanamide] | 40 to 250
18 | CCCCCCCCOc1cccc([C@@H]2C[C@H]2CNC(=O)CCC)c1 (relative stereo) [Example 54, (trans)-N-[[2-[(3-Octyloxy)phenyl]cyclopropyl]methyl] butanamide] | 5 to 40
19 | CCCCCCCCCOc1cccc([C@@H]2C[C@H]2CNC(=O)CCC)c1 (relative stereo) [Example 55, (trans)-N-[[2-[3-(Nonyloxy)phenyl]cyclopropyl]methyl] butanamide] | 40 to 250
20 | CCCCCCCCCCOc1cccc([C@@H]2C[C@H]2CNC(=O)CCC)c1 (relative stereo) [Example 56, (trans)-N-[[2-[(3-Decyloxy)phenyl]cyclopropyl]methyl] butanamide] | 5 to 40
